The series in a line: HILIC, Merck SeQuant ZIC-HILIC, 25 °C, 0.25 mL/min; A: water + 16 mM ammonium formate; B: acetonitrile + 0.1% formic acid, pH 3; gradient (min/%B) 0/97 2/97 10/70 15/10 17/10 18/97 25/97. The conditions noted are these: stereoisomer not certain.
As to `NC(CCSSCCC(N)C(=O)O)C(=O)O` (stereo not given) [HOMOCYSTINE], the LC retention time came out at 15 min.
`COc1cc(CC(=O)O)ccc1O` [HOMOVANILLATE]: the LC retention time was determined as 2.04 min.
For `Nc1c(O)cccc1C(=O)CC(N)C(=O)O` (stereo not given) [HYDROXYKYNURENINE], the LC retention time worked out at 12 min.
As for `O=C(O)C(O)Cc1ccc(O)cc1` (stereo not given) [HYDROXYPHENYLLACTATE], the LC retention time was 5.36 min.
On to `O=C(O)C(=O)CO` [HYDROXYPYRUVATE], for which the LC retention time was found to be 13.3 min.
On to `NCCS(=O)O` [HYPOTAURINE], for which the LC retention time is 13.9 min.
With `O=c1[nH]cnc2nc[nH]c12` [HYPOXANTHINE], the LC retention time amounted to 8.77 min.
The figure for `O=C(O)Cc1c[nH]c2ccccc12` [INDOLE-3-ACETATE] is 2.06 min; for `OCCc1c[nH]c2ccccc12` [INDOLE-3-ETHANOL] it is 1.82 min; for `COC(=O)Cc1c[nH]c2ccccc12` [INDOLE-3-METHYL ACETATE] it is 1.61 min.
As for `O=C(O)C(=O)Cc1c[nH]c2ccccc12` [INDOLE-3-PYRUVATE], the LC retention time amounted to 1.88 min.
For `O=CCc1c[nH]c2ccccc12` [INDOLEACETALDEHYDE], the LC retention time stood at 10 min.
For the compound `O=c1[nH]cnc2c1ncn2C1OC(COP(=O)([O-])OP(=O)([O-])O)C(O)C1O` (stereo not given) [INOSINE 5'-DIPHOSPHATE], the LC retention time stood at 15 min.
Consider `O=c1[nH]cnc2c1ncn2C1OC(CO)C(O)C1O` (stereo not given) [INOSINE], for which the LC retention time is 10.3 min.
`CC(C)C(=O)O` [ISOBUTYRATE]: the LC retention time was 2.11 min.
The value for `CCC(C)C(N)C(=O)O` (stereo not given) [ISOLEUCINE] was 11.6 min; that for `C=C(C)CCOP(=O)(O)OP(=O)(O)O` [ISOPENTENYL PYROPHOSPHATE] was 2.11 min.
For the compound `Cc1cc(=O)oc(C)c1C(=O)O` [Isodehydracetic acid], the LC retention time came out at 2.33 min.
The figure for `O=C(O)c1cc[n+]([O-])cc1` [Isonicotinic acid N-oxide] is 9.7 min; for `CC(C)CC(=O)OC(CC(=O)[O-])C[N+](C)(C)C` [Isovaleryl-L-carnitine] it is 10.2 min; for `O=C(O)c1cc(=O)c2ccccc2[nH]1` [Kynurenic acid] it is 9.58 min.
With `NC(N)=NCCC[C@H](N)C(=O)O` [L-Arginine], the LC retention time was 16 min.
`NC(=O)C[C@H](N)C(=O)O` [L-Asparagine]: the LC retention time came to 14.2 min.
On to `O=C1OC(C(O)CO)C(O)C1O` [L-GULONOLACTONE], for which the LC retention time came to 10.3 min.
In the case of `NC(=O)CC[C@H](N)C(=O)O` [L-Glutamine], the LC retention time is 14.1 min.
On to `N[C@@H](Cc1cnc[nH]1)C(=O)O` [L-Histidine], for which the LC retention time came out at 15.8 min.
As to `NCCCC[C@H](N)C(=O)O` [L-Lysine], the LC retention time turned out to be 16.1 min.
Take `N[C@@H](Cc1ccccc1)C(=O)O` [L-Phenylalanine]: the LC retention time came to 11.1 min.
In the case of `N[C@@H](CO)C(=O)O` [L-Serine], the LC retention time is 14.2 min.
On to `NC(=O)[C@@H](N)Cc1c[nH]c2ccccc12` [L-TRYPTOPHANAMIDE], for which the LC retention time amounted to 11.7 min.
Take `C[C@@H](O)[C@H](N)C(=O)O` [L-Threonine]: the LC retention time amounted to 13.7 min.
The value for `CC(O)C(=O)O` (stereo not given) [LACTATE] was 2.75 min; that for `NC(=O)CCCCC1CCSS1` (stereo not given) [LIPOAMIDE] was 1.79 min.
The value for `NC(CCCC(N)C(=O)O)C(=O)O` (stereo not given) [LL-2-6-DIAMINOHEPTANEDIOATE] was 15.4 min; that for `Cc1cc2nc3[nH]c(=O)[nH]c(=O)c3nc2cc1C` [LUMICHROME] was 1.94 min.
Regarding `O=C(O)CC(O)C(=O)O` (stereo not given) [MALATE], the LC retention time was 8.89 min.
The value for `NC(=O)C=CC(=O)O` [MALEAMATE] was 2.53 min; that for `O=C([O-])C=CC(=O)[O-]` [MALEATE] was 2.17 min; that for `O=C(O)CC(=O)O` [MALONATE] was 6.35 min.
On to `O=C([O-])C(O)c1ccccc1` (stereo not given) [MANDELATE], for which the LC retention time came to 2.08 min.
In the case of `COc1ccc2[nH]cc(CCNC(C)=O)c2c1` [MELATONIN], the LC retention time was 1.92 min.
As for `O=C(O)C(=O)CS` [MERCAPTOPYRUVATE], the LC retention time is 13.8 min.
As to `O=C([O-])C(O)C(O)C(=O)[O-]` (stereo not drawn) [MESO-TARTRATE], the LC retention time was determined as 13.6 min.
On to `CS(=N)(=O)CCC(N)C(=O)O` (stereo not given) [METHIONINE SULFOXIMINE], for which the LC retention time came to 14.4 min.
For the compound `COC(=O)CCCN` [METHYL 4-AMINOBUTYRATE-CH2], the LC retention time worked out at 13.4 min.
Consider `CN=C(N)N` [METHYLGUANIDINE], for which the LC retention time was 12 min.
The figure for `CSCC1OC(n2cnc3c(N)ncnc32)C(O)C1O` (stereo not given) [METHYLTHIOADENOSINE] is 4.75 min.
For the compound `COC(=O)Cc1ccc(O)cc1` [Methyl 4-hydroxyphenylacetate], the LC retention time was determined as 1.67 min.
Regarding `CC(CC(=O)O)C(=O)O` (stereo not given) [Methyl-succinic acid], the LC retention time was 2.18 min.
On to `CC(=O)NCCCNCCCCNCCCN` [N1-ACETYLSPERMINE], for which the LC retention time is 19.9 min.
On to `CC(C)=CCNc1ncnc2nc[nH]c12` [N6-(DELTA2-ISOPENTENYL)-ADENINE], for which the LC retention time was found to be 2.13 min.
For the compound `CNC(=O)c1cccnc1` [N methyl nicotinamide], the LC retention time stood at 2.15 min.
For `CC(=O)NC(CC(N)=O)C(=O)O` (stereo not given) [N-ACETYLASPARAGINE], the LC retention time is 9.75 min.
As to `CC(=O)NC(CC(=O)O)C(=O)O` (stereo not given) [N-ACETYLASPARTATE], the LC retention time was found to be 8.76 min.
`CC(=O)NC(CSSCC(NC(C)=O)C(=O)O)C(=O)O` (stereo not given) [N-ACETYLCYSTEINE-dimere]: the LC retention time was determined as 13.2 min.
In the case of `CC(=O)NC(CS)C(=O)O` (stereo not given) [N-ACETYLCYSTEINE], the LC retention time worked out at 3.43 min.
Turning to `CC(=O)NC(CCC(=O)O)C(=O)O` (stereo not given) [N-ACETYLGLUTAMATE], the LC retention time came out at 8.36 min.
As to `CC(=O)NCC(=O)O` [N-ACETYLGLYCINE], the LC retention time stood at 4.93 min.
Take `CSCCC(NC(C)=O)C(=O)O` (stereo not given) [N-ACETYLMETHIONINE]: the LC retention time is 2.18 min.
Turning to `CC(=O)NC(Cc1ccccc1)C(=O)O` (stereo not given) [N-ACETYLPHENYLALANINE], the LC retention time was found to be 1.95 min.
With `CC(=O)NCCCCN` [N-ACETYLPUTRESCINE], the LC retention time was found to be 12.9 min.
For `CC(=O)NC(CO)C(=O)O` (stereo not given) [N-ACETYLSERINE], the LC retention time is 8.33 min.
Take `CC(=O)NCCc1c[nH]c2ccc(O)cc12` [N-ACETYLSEROTONIN]: the LC retention time was determined as 2.15 min.
The value for `CC(=O)NC(Cc1c[nH]c2ccccc12)C(=O)O` (stereo not given) [N-ACETYLTRYPTOPHAN] was 2.15 min; that for `CC(=O)N[C@@H](Cc1ccc(O)cc1)C(=O)O` [N-Acetyl-L-tyrosine] was 2.16 min; that for `CC(=O)NC1C(O)CC(O)(C(=O)O)OC1C(O)C(O)CO` (stereo not given) [N-Acetylneuraminic acid] was 13.9 min.
As to `O=CNCC(=O)O` [N-FORMYLGLYCINE], the LC retention time is 5.34 min.
Consider `CNC(CCC(=O)O)C(=O)O` (stereo not given) [N-METHYLGLUTAMATE], for which the LC retention time was 13.9 min.
With `C[N+](C)(C)CCCCC(N)C(=O)[O-]` (stereo not given) [N-N-N-TRIMETHYLLYSINE], the LC retention time was found to be 16.5 min.
`c1ccc(CNc2ccccc2)cc1` [N-benzylaniline]: the LC retention time turned out to be 1.54 min.
The value for `Cn1cc(C(N)=O)ccc1=O` [N-methyl-2-pyridone-5-carboxamide] was 2.21 min; that for `NC(=O)C1=CN(C2OC(COP(=O)(O)OP(=O)(O)OCC3OC(n4cnc5c(N)ncnc54)C(OP(=O)(O)O)C3O)C(O)C2O)C=CC1` (stereo not given) [NADPH] was 15 min.
The value for `CCCCCCCCC=CCCCCCCCCCCCCCC(=O)[O-]` [NERVONATE] was 1.52 min.
With `NC(=O)c1ccc[n+](C2OC(COP(=O)(O)OP(=O)(O)OCC3OC(n4cnc5c(=O)[nH]cnc54)C(O)C3O)C(O)C2O)c1` (stereo not given) [NICOTINAMIDE HYPOXANTHINE DINUCLEOTIDE], the LC retention time came out at 14.8 min.
`NC(=O)c1ccc[n+](C2OC(COP(=O)([O-])O)C(O)C2O)c1` (stereo not given) [NICOTINAMIDE MONONUCLEOTIDE]: the LC retention time worked out at 14.7 min.
Turning to `Nc1ncnc2c1ncn2C1OC(COP(=O)(O)OP(=O)([O-])OCC2OC([n+]3cccc(C(=O)O)c3)C(O)C2O)C(O)C1OP(=O)(O)O` (stereo not given) [NICOTINIC ACID ADENINE DINUCLEOTIDE PHOSPHATE], the LC retention time was found to be 15.3 min.
Consider `NCC(O)c1ccc(O)c(O)c1` (stereo not given) [NORADRENALINE], for which the LC retention time was 13.4 min.
As for `CCCCC(N)C(=O)O` (stereo not given) [NORLEUCINE], the LC retention time came to 11.2 min.
The value for `NCCCNCCCN` [NORSPERMIDINE] was 19.4 min; that for `O=C(O)c1cccnc1` [Nicotinic acid] was 2.81 min.
As to `CC(=O)OCC(N)C(=O)O` (stereo not given) [O-ACETYLSERINE], the LC retention time was 12.4 min.
For `NC(CCOC(=O)CCC(=O)O)C(=O)O` (stereo not given) [O-SUCCINYL-HOMOSERINE], the LC retention time was determined as 13.3 min.
Take `O=C(O)CCCCCCCCCCCO` [OMEGA-HYDROXYDODECANOATE]: the LC retention time was found to be 1.7 min.
With `CCC(NC(=O)CCC(N)C(=O)O)C(=O)NCC(=O)O` (stereo not given) [OPHTHALMATE], the LC retention time stood at 14.1 min.
Consider `O=C([O-])c1cc(=O)[nH]c(=O)[nH]1` [OROTATE], for which the LC retention time came out at 10.9 min.
Take `O=C(O)C(=O)O` [OXALATE]: the LC retention time was 17.5 min.
The value for `NCC(O)c1ccc(O)cc1` (stereo not given) [P-OCTOPAMINE] was 12.4 min; that for `OCC1OC(OCC2OC(O)(CO)C(O)C2O)C(O)C(O)C1O` (stereo not given) [PALATINOSE] was 13.6 min; that for `NCCc1ccccc1` [PHENETHYLAMINE] was 10.2 min.
With `NCC(O)c1ccccc1` (stereo not given) [PHENYLETHANOLAMINE], the LC retention time stood at 10.9 min.

Values taken from the RepoRT retention time repository.
